Earlier results, collected in patent US7601707B1, “Method for instantly relieving tissue inflammation” (priority 2003, dated 2009).

Tests used:
[1] = in vivo
[2] = dose at which some people begin to feel toxic systemic effects; not considered lethal

water solubility | SMILES | Half-life [1] | Max dose Mg/Kg [2]
very water-soluble | C[C@@H]1C[C@H]2[C@@H]3CCC4=CC(=O)C=C[C@]4(C)[C@@]3(F)[C@@H](O)C[C@]2(C)[C@@]1(O)C(=O)CO [Dexamethasone] |  | 
 | CCCNC(C)C(=O)Nc1ccccc1C (stereo not drawn) [Prilocaine] | 1.5 h | 8.0 Mg/Kg
 | Cc1cccc(C)c1NC(=O)C1CCCCN1C (stereo not drawn) [Mepivicaine 2%, Mepivicaine] | 1.92 h | 6.6 Mg/Kg
 | CCCCN1CCCCC1C(=O)Nc1c(C)cccc1C (stereo not drawn) [Bupivicaine] | 3.5 h | 1.3 Mg/Kg
 | CCN(CC)CC(=O)Nc1c(C)cccc1C [Lidocaine] |  | 7.0 Mg/Kg
 | CCCNC(C)C(=O)Nc1c(C)csc1C(=O)OC (stereo not drawn) [Articaine] | 0.333 h | 7.0 Mg/Kg
 | CCCN(CC)C(CC)C(=O)Nc1c(C)cccc1C (stereo not drawn) [Etidocaine] | 2.58 h | 8.0 Mg/Kg
